This is an account of results in ChEMBL document CHEMBL1201862, “PubChem BioAssay data set” (2004).

Among the test systems are MDA-MB-435; HCT-15; BT-549; SR; SN12C; PC-3; MOLT-4; T47D; SNB-19; NCI-H522; EKVX; HOP-62; CCRF-CEM; MCF7; SK-MEL-5; SW-620; ACHN; UACC-62; Malme-3M.
Holding throughout (assay): NCI anticancer screen, dose series, 48 h

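Exposure lasted 48 hours, with cells grown in 96-well plates and compounds tested at five concentrations. GI50 marks 50% less growth.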 Calls of active or inactive are those of the source. Cut-off read from the data, not from the text of the source: active = GI50 up to about 1.1 µM and inactive = higher.

In the case of `Cc1cc(C)n(CN(CCCCO)Cn2nc(C)cc2C)n1`, the GI50 in the test with MDA-MB-435 was 19.4 µM (inactive); in the test on HCT-15 it was 17.5 µM; in the test with BT-549, 23 µM (inactive); in the test with SR, 4.82 µM (inactive); in the test on SN12C, 26 µM (inactive); with PC-3 it was 20.2 µM (inactive). Besides, the GI50 is 14.2 µM (inactive) with MOLT-4; 25.6 µM (inactive) in the test with T47D; 57.1 µM (inactive) in the test on SNB-19; 23.8 µM (inactive) in the test on NCI-H522; 35.3 µM (inactive) in the test with EKVX; 21.8 µM (inactive) in the test with HOP-62. Moreover, the GI50 in the test on CCRF-CEM is 0.178 µM (active); in the test on MCF7 it was 26.8 µM (inactive); with SK-MEL-5, 34.1 µM (inactive); in the test on SW-620, 21.7 µM (inactive); in the test with ACHN it was 17.5 µM (inactive); with UACC-62, 19.1 µM (inactive). Further, the GI50 in the test on Malme-3M was 22.9 µM (inactive).

For `N#Cc1c(N2CCCC2)nsc1NCc1ccccc1`, the GI50 in the test on MDA-MB-435 was > 100 µM (inactive); with HCT-15 it was greater than 100 µM; in the test with BT-549 it was > 100 µM (inactive); with SR it was > 100 µM (inactive); in the test on SN12C, > 100 µM (inactive); in the test with PC-3 it was > 100 µM (inactive). The GI50 was > 100 µM (inactive) with MOLT-4; 74.6 µM (inactive) with T47D; > 100 µM (inactive) with SNB-19; > 100 µM (inactive) with NCI-H522; > 100 µM (inactive) in the test with EKVX; > 100 µM (inactive) in the test on HOP-62. Moreover, the GI50 with CCRF-CEM is > 100 µM (inactive); in the test on MCF7, > 100 µM (inactive); in the test with SK-MEL-5, > 100 µM (inactive); in the test with SW-620 it was > 100 µM (inactive); in the test on ACHN it was 91 µM (inactive); in the test with UACC-62, 75.2 µM (inactive). Besides, the GI50 in the test on Malme-3M was > 100 µM (inactive).

As to `[O-]c1c2cc(-[n+]3c(-c4ccccc4)cc(-c4ccccc4)cc3-c3ccccc3)cc1CO[C@@H](c1ccccc1)[C@H](c1ccccc1)OCCOCCO[C@@H](c1ccccc1)[C@H](c1ccccc1)OC2`, the GI50 in the test on MDA-MB-435 was 0.049 µM (active); in the test on HCT-15, 0.319 µM; in the test on BT-549 it was 0.0356 µM (active); in the test with SR, 0.0309 µM (active); in the test with SN12C, 0.0398 µM (active); in the test with PC-3 it was 0.039 µM (active). The GI50 in the test with MOLT-4 was 0.0397 µM (active); with T47D it was 0.0344 µM (active); in the test on SNB-19, 0.0489 µM (active); with NCI-H522 it was 0.0264 µM (active); in the test on EKVX, 0.109 µM (active); in the test on HOP-62, 0.129 µM (active). The GI50 with CCRF-CEM was 0.048 µM (active); with MCF7 it was 0.0382 µM (active); in the test on SK-MEL-5 it was 0.03 µM (active); in the test with SW-620, 0.0562 µM (active); in the test with ACHN, 0.167 µM (active); with UACC-62 it was 0.0577 µM (active). Besides, in the test on Malme-3M, the GI50 was 0.0407 µM (active).

Consider `O=[N+]([O-])c1ccc(C2=NOC(c3ccccc3)N2C23CC4CC(CC(C4)C2)C3)cc1` (configuration not stated), for which the GI50 was 21.8 µM (inactive) with MDA-MB-435; 29.8 µM in the test with HCT-15; 19.8 µM (inactive) with BT-549; > 10 µM (inactive) with SR; 46 µM (inactive) in the test with SN12C; 20.5 µM (inactive) in the test on PC-3. For the same compound, the GI50 was 17.5 µM (inactive) in the test with MOLT-4; 25.7 µM (inactive) in the test on T47D; > 10 µM (inactive) in the test with SNB-19; 19 µM (inactive) in the test with NCI-H522; 48.1 µM (inactive) in the test on EKVX; 26.5 µM (inactive) in the test with HOP-62. In addition, the GI50 in the test with CCRF-CEM is 21.7 µM (inactive); in the test on MCF7, 24.8 µM (inactive); in the test with SK-MEL-5 it was 22.2 µM (inactive); with SW-620 it was 35.3 µM (inactive); with ACHN it was 20.1 µM (inactive); with UACC-62 it was 20.8 µM (inactive). In addition, the GI50 in the test with Malme-3M was 25.1 µM (inactive).

For `O=C(O)CCSC(=S)Nc1ccc([N+](=O)[O-])cc1`, the GI50 in the test on MDA-MB-435 is 24.4 µM (inactive); in the test on HCT-15, greater than 56.6 µM; with BT-549 it was 36.2 µM (inactive); in the test on SR, 11.7 µM (inactive); in the test with SN12C, > 74 µM (inactive); in the test with PC-3 it was 48.2 µM (inactive). Further, the GI50 in the test on MOLT-4 was 8.38 µM (inactive); in the test on T47D, 31.3 µM (inactive); in the test with SNB-19 it was > 81.8 µM (inactive); in the test on NCI-H522, > 46.5 µM (inactive); in the test on EKVX, > 51.4 µM (inactive); with HOP-62, > 94.2 µM (inactive). Moreover, the GI50 is 23.7 µM (inactive) with CCRF-CEM; 40.1 µM (inactive) in the test on MCF7; 20.3 µM (inactive) in the test on SK-MEL-5; > 70.1 µM (inactive) in the test with SW-620; 33.8 µM (inactive) in the test with ACHN; 21.6 µM (inactive) in the test with UACC-62. Moreover, the GI50 in the test with Malme-3M was 38.2 µM (inactive).

With `O=C1C=CC(=O)N1c1ccc2c(c1)Cc1cc(NC(=O)C(F)(F)F)ccc1-2`, the GI50 in the test with MDA-MB-435 was 17.4 µM (inactive); in the test with HCT-15 it was 10.6 µM; with BT-549 it was 16.6 µM (inactive); with SR it was 2.74 µM (inactive); in the test with SN12C, 17.1 µM (inactive); with PC-3, 17.1 µM (inactive). In addition, the GI50 is 4.25 µM (inactive) with MOLT-4; 17.9 µM (inactive) in the test with T47D; > 47 µM (inactive) with SNB-19; 5.09 µM (inactive) with NCI-H522; 14.9 µM (inactive) in the test with EKVX; 20.1 µM (inactive) in the test on HOP-62. The GI50 in the test on CCRF-CEM is 3.96 µM (inactive); with MCF7, 15.1 µM (inactive); in the test with SK-MEL-5, 47 µM (inactive); in the test on SW-620, 9.84 µM (inactive); in the test on ACHN, 4.43 µM (inactive); in the test on UACC-62, 16.8 µM (inactive). For the same compound, the GI50 with Malme-3M is 19.8 µM (inactive).

With `O=C(/C=C/c1ccc(F)c(F)c1)OCCc1ccccc1`, the GI50 was > 100 µM (inactive) with MDA-MB-435; 58.5 µM in the test with HCT-15; > 100 µM (inactive) in the test with BT-549; 90.6 µM (inactive) in the test on SR; > 100 µM (inactive) in the test with SN12C; > 100 µM (inactive) in the test with PC-3. Also, the GI50 was 18 µM (inactive) in the test with MOLT-4; 72.4 µM (inactive) with T47D; > 100 µM (inactive) with SNB-19; 38.6 µM (inactive) with NCI-H522; > 100 µM (inactive) in the test on EKVX; > 100 µM (inactive) in the test on HOP-62. The GI50 with CCRF-CEM is 29.8 µM (inactive); in the test on MCF7, 81.8 µM (inactive); with SK-MEL-5, 38.5 µM (inactive); in the test on SW-620, > 100 µM (inactive); in the test with ACHN, > 100 µM (inactive); in the test with UACC-62 it was > 100 µM (inactive). The GI50 in the test on Malme-3M was > 100 µM (inactive).

For the compound `COc1ccc(OC)c(NC(=O)c2c(Cl)c(Cl)c(Cl)c(Cl)c2-c2nc3ccccc3[nH]2)c1`, the GI50 with MDA-MB-435 was > 100 µM (inactive); in the test on HCT-15, greater than 100 µM; with BT-549, > 100 µM (inactive); in the test with SR it was 52.6 µM (inactive); in the test on SN12C, 80.4 µM (inactive); with PC-3 it was > 100 µM (inactive). Besides, the GI50 with MOLT-4 was 56.2 µM (inactive); in the test on T47D, > 100 µM (inactive); in the test with SNB-19, > 100 µM (inactive); with NCI-H522, > 100 µM (inactive); in the test with EKVX, > 100 µM (inactive); in the test on HOP-62 it was > 100 µM (inactive). The GI50 in the test with CCRF-CEM was 49.2 µM (inactive); with MCF7 it was 76.7 µM (inactive); in the test with SK-MEL-5 it was > 100 µM (inactive); with SW-620, > 100 µM (inactive); with ACHN, > 100 µM (inactive); with UACC-62 it was > 100 µM (inactive). Also, the GI50 in the test with Malme-3M is > 100 µM (inactive).
